Results taken from paper PMC11542720, “Modelling of chromatographic and electrophoretic behaviour of imidazoline and alpha adrenergic receptors ligands under different acid-base conditions” (ADMET & DMPK, 2024).
Counter-ions that a name gives are not always drawn. Like-named read-outs stand apart in the source and are kept apart here.

Columns and labels:
[1] = RP-HPLC retention on XTerra RP18, methanol/buffer; extrapolated retention factor log kw and slope S; format: physicochemical; conditions: for log kw: intercept, extrapolated to 100 % buffer, methanol/buffer, 25 °C; for S (slope): slope of log k vs methanol volume fraction
Protocol: All measurements were performed at 25°C with a constant flow rate of 0.8 mL min^-1 and UV detection in the range of 200-280 nm. The injection volume was 20 μL. […] The retention factor k was calculated for each mobile phase composition according to Equation (1):
where tr is the retention time of the tested compound and t0 is the dead volume measured with KNO3 as a non-retentive marker. The values corresponding to 100 % of the buffered eluent (log kw) were determined by extrapolation according to Equation (2):
where log kw is the intercept, S is the slope of the regression line, and φ is the volume fraction of the organic modifier in the mobile phase.
The retention behaviour in HPLC system was monitored by calculating extrapolated retention factors log kw corresponding to pure buffer as mobile phase.

[2] = Capillary electrophoresis, effective electrophoretic mobility (acetone as EOF marker); format: physicochemical; conditions: for µeff4.4: pH 4.4; for µeff4.4 / µeff7.4 / µeff9.1: I = 25 mmol/L, 11 kV, 25 °C, three replicates; for μeff9.1 (effective electrophoretic mobility) / µeff9.1: pH 9.1
Protocol: All experiments were performed using the SpectraPhoresis 500-capillary electrophoresis system (Spectra Physics Analytical, USA) with UV detector. Data were recorded and analyzed using ChromQuest software version 4.0 (Thermo Finnigan, USA).
The separations were performed with an uncoated fused capillary (total length 31.5 cm, 50 μm id, effective length 24 cm, Polymicro Technologies, USA) applying a voltage of 11 kV and at 25 °C. The samples were injected hydrodynamically and detection was performed in the 200-280 nm range. The new capillary was rinsed stepwise with 0.1 M NaOH (15 min), water (10 min) and a running buffer (10 min). Finally, a 10 min high voltage was applied through the background electrolyte-filled capillary to equalize the inner surface, stabilize the electroosmotic flow and ensure good reproducibility of injections from run to run. […] Between runs, the capillary was rinsed with the background electrolyte for 1 minute.
where Lt is the total length of the capillary (cm), Leff is the effective length of the capillary (cm), U is the applied voltage (V), tm is the migration time of the analyte (s) and teof is the migration time of the electroneutral EOF marker acetone (s). The calculated μeff values (μeff4.4, μeff7.4 and μeff9.1) were used as dependent variables in QSMR analysis.

[3] = cited from earlier work
[4] = HPLC, ref 7 (Supplement reference list)
[5] = pH-spectrophotometric, ref 14 (Supplement reference list)
[6] = pH titration, ref 4 (Supplement reference list)

| Structure (SMILES) | log kw ([1]; pH 4.4) | S (slope) ([1]; pH 4.4) | log kw ([1]; pH 7.4) | S (slope) ([1]; pH 7.4) | log kw ([1]; pH 9.1) | S (slope) ([1]; pH 9.1) | µeff4.4 [2] | µeff7.4 ([2]; pH 7.4) | μeff9.1 (effective electrophoretic mobility) [2] | µeff9.1 [2] | also measured |
| --- | --- | --- | --- | --- | --- | --- | --- | --- | --- | --- | --- |
| Cc1cc(C(C)(C)C)c(O)c(C)c1CC1=NCCN1 [Oxymetazoline, oxymetazoline hydrochloride] | 2.33 ± 0.02 | -3.89 ± 0.04 | 2.33 ± 0.04 | -3.61 ± 0.10 | 2.60 ± 0.07 | -4.14 ± 0.16 | 20.276 ± 0.040 10^-5 cm^2 V^-1 s^-1 | 19.061 ± 0.049 10^-5 cm^2 V^-1 s^-1 |  | 19.556 ± 0.076 10^-5 cm^2 V^-1 s^-1 | pKa experimental ([3]; pH spectrophotometric, ref 13 (Supplement reference list)): 10.62 |
| Brc1c(NC2=NCCN2)ccc2nccnc12 [Brimonidine, brimonidine hydrochloride] | 0.99 ± 0.03 | -4.78 ± 0.21 | 1.08 ± 0.03 | -3.20 ± 0.12 | 1.26 ± 0.07 | -3.23 ± 0.19 | 23.357 ± 0.043 10^-5 cm^2 V^-1 s^-1 | 13.247 ± 0.200 10^-5 cm^2 V^-1 s^-1 | zero | 0.000 ± 0.000 10^-5 cm^2 V^-1 s^-1 | pKa experimental ([3]; potentiometric, ref 2 (Supplement reference list)): 7.50 |
| COc1nc(C)nc(Cl)c1N=C1NCCN1 [Moxonidine, moxonidine hydrochloride] | 0.57 ± 0.03 | -3.21± 0.17 | 0.63 ± 0.03 | -2.36 ± 0.10 | 0.75 ± 0.04 | -2.31 ± 0.10 | 22.669 ± 0.104 10^-5 cm^2 V^-1 s^-1 | 10.907 ± 0.078 10^-5 cm^2 V^-1 s^-1 | zero | 0.000 ± 0.000 10^-5 cm^2 V^-1 s^-1 | pKa experimental [3, 4]: 7.84 |
| CNC[C@H](O)c1cccc(O)c1 [Phenilephrine, Phenilephrine hydrochloride] | 0.09 ± 0.02 | -2.53 ± 0.14 | 0.04 ± 0.01 | -2.62 ± 0.06 | 0.39 ± 0.02 | -2.00 ± 0.06 | 25.780 ± 0.006 10^-5 cm^2 V^-1 s^-1 | 21.650 ±0.195 10^-5 cm^2 V^-1 s^-1 |  | 8.661 ± 0.036 10^-5 cm^2 V^-1 s^-1 | log kw ([1]; pH 4.4, listed as phenilephrine): 0.09; pKa experimental (first of two printed values) [3, 5]: 9.17; pKa experimental (second of two printed values) [3, 5]: 9.17 and 10.45 (pH-spectrophotometric) [14 ] |
| c1cc2c(c(NC3=NCCN3)c1)CCCC2 [Tramazoline, Tramazoline hydrochloride] | 1.55 ± 0.03 | -3.43 ± 0.07 | 1.51 ± 0.01 | -3.51 ± 0.06 | 1.74 ± 0.01 | -3.37 ± 0.03 | 24.393 ± 0.067 10^-5 cm^2 V^-1 s^-1 | 22.988 ± 0.060 10^-5 cm^2 V^-1 s^-1 |  | 23.713 ± 0.031 10^-5 cm^2 V^-1 s^-1 | pKa experimental [3, 6]: 10.66 ± 0.05 |

Further lines, with some results ahead:

| log kw ([1]; pH 4.4) | S (slope) ([1]; pH 4.4) | log kw ([1]; pH 7.4) | S (slope) ([1]; pH 7.4) | log kw ([1]; pH 9.1) | S (slope) ([1]; pH 9.1) | µeff4.4 [2] | µeff7.4 ([2]; pH 7.4) | μeff9.1 (effective electrophoretic mobility) [2] | µeff9.1 [2] | Structure (SMILES) | also measured |
| --- | --- | --- | --- | --- | --- | --- | --- | --- | --- | --- | --- |
| 1.75 ± 0.05 | -3.96 ± 0.14 | 1.92 ± 0.05 | -3.76 ± 0.12 | 1.93 ± 0.04 | -3.75 ± 0.11 | 22.146 ± 0.019 10^-5 cm^2 V^-1 s^-1 | 1.140 ± 0.053 10^-5 cm^2 V^-1 s^-1 | zero | 0.000 ± 0.000 10^-5 cm^2 V^-1 s^-1 | Nc1nc(N)c2nc(-c3ccccc3)c(N)nc2n1 [Triamterene, triamterene] | μeff7.4 (effective electrophoretic mobility, text) ([2]; pH 7.4): 1.140±0.053 10^-5 cm^2 / V s; pKa experimental ([3]; spectrophotometric, ref 15 (Supplement reference list)): 7.16 |
| 3.42 ± 0.07 | -5.56 ± 0.14 | 3.67 ± 0.11 | -5.05 ± 0.19 | 3.60 ± 0.11 | -4.95 ± 0.20 | 15.795 ± 0.013 10^-5 cm^2 V^-1 s^-1 | 3.137 ± 0.075 10^-5 cm^2 V^-1 s^-1 | zero | 0.000 ± 0.000 10^-5 cm^2 V^-1 s^-1 | COc1cc2nc(N3CCN(C(=O)C4COc5ccccc5O4)CC3)nc(N)c2cc1OC (centres unmarked) [Doxazosin, doxazosin mesilat] | pKa experimental ([3]; voltammetric, ref 6 (Supplement reference list)): 6.89 ± 0.57 |
| 2.90 ± 0.08 | -4.31 ± 0.14 | 2.58 ± 0.12 | -3.18 ± 0.20 | 3.09 ± 0.08 | -4.20 ± 0.14 | 20.559 ± 0.034 10^-5 cm^2 V^-1 s^-1 | 18.696 ± 0.048 10^-5 cm^2 V^-1 s^-1 |  | 19.402 ± 0.148 10^-5 cm^2 V^-1 s^-1 | CNCCCC12CCC(c3ccccc31)c1ccccc12 [Maprotiline, maprotiline hydrochloride] | pKa experimental ([3]; potentiometric, ref 11 (Supplement reference list)): 10.45 ± 0.02 |
| 1.06 ± 0.02 | -2.94 ± 0.05 | 1.08 ± 0.01 | -3.24 ± 0.06 | 1.32 ± 0.03 | -2.99 ± 0.07 | 25.680 ± 0.049 10^-5 cm^2 V^-1 s^-1 | 24.299 ± 0.057 10^-5 cm^2 V^-1 s^-1 | 25.05 10^-5 cm^2 / V s | 25.047 ± 0.066 10^-5 cm^2 V^-1 s^-1 | c1ccc2c(c1)CCCC2C1=NCCN1 (centres unmarked) [Tetrahydrozoline, tetrahydrozoline hydrochloride] | pKa experimental [3, 6]: 10.51 ± 0.05 |
| 2.94 ± 0.03 | -4.69 ± 0.06 | 3.85 ± 0.05 | -4.88 ± 0.08 | 3.95 ± 0.08 | -5.04 ± 0.15 | 22.697 ± 0.017 10^-5 cm^2 V^-1 s^-1 | 9.204 ± 0.061 10^-5 cm^2 V^-1 s^-1 | zero | 0.000 ± 0.000 10^-5 cm^2 V^-1 s^-1 | CN1CCN(C2=Nc3cc(Cl)ccc3Nc3ccccc32)CC1 [Clozapine, clozapine] | pKa experimental ([3]; HPLC, ref 5 (Supplement reference list)): 7.719 ± 0.015 |
| 0.82 ± 0.01 | -2.66 ± 0.03 | 0.85 ± 0.02 | -1.58 ± 0.04 | 1.53 ± 0.01 | -2.80 ± 0.01 | 26.969 ± 0.032 10^-5 cm^2 V^-1 s^-1 | 23.293 ± 0.020 10^-5 cm^2 V^-1 s^-1 |  | 6.627 ± 0.102 10^-5 cm^2 V^-1 s^-1 | c1ccc2c(c1)OCC(C1=NCCN1)O2 (centres unmarked) [Idazoxan, idazoxan hydrochloride] | pKa experimental [3, 4]: 9.04 |
